Assay results as given in PubChem BioAssay AID256 (DTP/NCI, 2004).
Values joined by “and” are separate entries in the source; they are usually repeats but may differ in a detail not shown here. Equal entries are not always repeated. Inconclusive results and toxic doses are left out.

Test system: CD2F1 mice, L1210 leukemia ip, survival T/C
Assay: NCI In Vivo Anticancer Drug Screen. Data for tumor model L1210 Leukemia (intraperitoneal) in CD2F1 (CDF1) mice
Conditions: higher = longer survival
Procedure, shortened: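 Vehicle-treated tumor-bearing mice served as controls (C) for compound-treated mice (T). Reported figure is T divided by C.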

[1] = endpoint: mean survival time, dose: 100.0 mg/kg/injection, schedule: Q01DX009 (ip), vehicle: saline with Tween-80
[2] = endpoint: mean survival time, dose: 200.0 mg/kg/injection, schedule: Q01DX009 (ip), vehicle: saline with Tween-80
[3] = endpoint: mean survival time, dose: 400.0 mg/kg/injection, schedule: Q01DX009 (ip), vehicle: saline with Tween-80

## O=CC(O)C(O)C(O)C(O)C(=O)O.O=CC(O)C(O)C(O)C(O)C(=O)O.[NH-]C1CCCCC1[NH-].[Pt+2] (centres undefined)
endpoint: mean survival time, dose: 1.56 mg/kg/injection, schedule: Q04DX003 (ip), vehicle: saline
  T/C: 118 % of control
endpoint: mean survival time, dose: 3.12 mg/kg/injection, schedule: Q04DX003 (ip), vehicle: saline
  T/C: 114 % of control
endpoint: mean survival time, dose: 6.25 mg/kg/injection, schedule: Q04DX003 (ip), vehicle: saline
  T/C: 191 % of control and 184 % of control
endpoint: mean survival time, dose: 12.5 mg/kg/injection, schedule: Q04DX003 (ip), vehicle: saline
  T/C: 212 % of control and 168 % of control and 213 % of control
endpoint: mean survival time, dose: 25.0 mg/kg/injection, schedule: Q04DX003 (ip), vehicle: saline
  T/C: 274 % of control [middle of 4 runs]
endpoint: mean survival time, dose: 50.0 mg/kg/injection, schedule: Q04DX003 (ip), vehicle: saline
  T/C: 154 % of control and 216 % of control and 330 % of control
endpoint: median survival time, dose: 3.12 mg/kg/injection, schedule: Q04DX003 (ip), vehicle: saline
  T/C: 104 % of control
endpoint: median survival time, dose: 6.25 mg/kg/injection, schedule: Q04DX003 (ip), vehicle: saline
  T/C: 106 % of control
endpoint: median survival time, dose: 12.5 mg/kg/injection, schedule: Q04DX003 (ip), vehicle: saline
  T/C: 106 % of control
endpoint: median survival time, dose: 25.0 mg/kg/injection, schedule: Q04DX003 (ip), vehicle: saline
  T/C: 107 % of control
endpoint: median survival time, dose: 50.0 mg/kg/injection, schedule: Q04DX003 (ip), vehicle: saline
  T/C: 111 % of control
endpoint: median survival time, dose: 100.0 mg/kg/injection, schedule: Q04DX003 (ip), vehicle: saline
  T/C: 110 % of control
endpoint: median survival time, dose: 200.0 mg/kg/injection, schedule: Q04DX003 (ip), vehicle: saline
  T/C: 116 % of control

## NCC[Se][Se]CCN
endpoint: median survival time, dose: 1.56 mg/kg/injection, schedule: Q01DX009 (ip), vehicle: suspension in saline
  T/C: 98 % of control
endpoint: median survival time, dose: 3.13 mg/kg/injection, schedule: Q01DX009 (ip), vehicle: suspension in saline
  T/C: 105 % of control
endpoint: median survival time, dose: 6.25 mg/kg/injection, schedule: Q01DX009 (ip), vehicle: suspension in saline
  T/C: 108 % of control

## COc1cccc2c1C(=O)c1c(O)c3c(c(O)c1C2=O)C[C@@](O)(C(O)CO)C[C@@H]3OC1CC(N(Cc2ccccc2)Cc2ccccc2)C(O)C(C)O1 (some centres undefined)
endpoint: median survival time, dose: 6.25 mg/kg/injection, schedule: Q01DX009 (ip), vehicle: water
  T/C: 122 % of control

## N=c1ccn2c(n1)OC1C(O)C(CO)OC12 (centres undefined)
endpoint: mean survival time, dose: 37.5 mg/kg/injection, schedule: Q01DX005 (ip), vehicle: saline
  T/C: 151 % of control
endpoint: mean survival time, dose: 53.0 mg/kg/injection, schedule: Q01DX009 (ip), vehicle: saline
  T/C: 246 % of control
endpoint: mean survival time, dose: 75.0 mg/kg/injection, schedule: Q01DX005 (ip), vehicle: saline
  T/C: 152 % of control and 173 % of control
endpoint: mean survival time, dose: 79.0 mg/kg/injection, schedule: Q01DX009 (ip), vehicle: saline
  T/C: 247 % of control
endpoint: mean survival time, dose: 100.0 mg/kg/injection, schedule: Q04DX002 (ip), vehicle: saline with Tween-80
  T/C: 151 % of control
endpoint: mean survival time, dose: 119.0 mg/kg/injection, schedule: Q01DX009 (ip), vehicle: saline
  T/C: 331 % of control
endpoint: mean survival time, dose: 150.0 mg/kg/injection, schedule: Q01DX005 (ip), vehicle: saline
  T/C: 160 % of control and 171 % of control
endpoint: mean survival time, dose: 178.0 mg/kg/injection, schedule: Q01DX009 (ip), vehicle: saline
  T/C: 341 % of control
endpoint: mean survival time, dose: 200.0 mg/kg/injection, schedule: Q04DX002 (ip), vehicle: saline with Tween-80
  T/C: 158 % of control
endpoint: mean survival time, dose: 300.0 mg/kg/injection, schedule: Q01DX005 (ip), vehicle: saline
  T/C: 205 % of control and 221 % of control
endpoint: mean survival time, dose: 400.0 mg/kg/injection, schedule: Q04DX002 (ip), vehicle: saline with Tween-80
  T/C: 205 % of control
endpoint: mean survival time, dose: 600.0 mg/kg/injection, schedule: Q01DX005 (ip), vehicle: saline
  T/C: 271 % of control and 274 % of control
endpoint: median survival time, dose: 200.0 mg/kg/injection, schedule: Q01DX009 (ip), vehicle: water
  T/C: 375 % of control
endpoint: median survival time, dose: 500.0 mg/kg/injection, schedule: Q01DX009 (ip), vehicle: water
  T/C: 93 % of control
endpoint: median survival time, dose: 600.0 mg/kg/injection, schedule: Q01DX009 (ip), vehicle: water
  T/C: 105 % of control

## NC(Cc1ccc(N(CCCl)CCCl)cc1)C(=O)O (centres undefined)
endpoint: mean survival time, dose: 5.0 mg/kg/injection, schedule: Q01DX009 (ip), vehicle: Klucel (hydroxypropylcellulose) (HPC)
  T/C: 106 % of control
endpoint: mean survival time, dose: 5.0 mg/kg/injection, schedule: Q01DX009 (ip), vehicle: saline with Tween-80
  T/C: 121 % of control
endpoint: mean survival time, dose: 6.4 mg/kg/injection, schedule: Q01DX001 (ip), vehicle: water
  T/C: 104 % of control
endpoint: mean survival time, dose: 6.4 mg/kg/injection, schedule: Q11HX001 (ip), vehicle: water
  T/C: 104 % of control
endpoint: mean survival time, dose: 8.0 mg/kg/injection, schedule: Q01DX001 (ip), vehicle: water
  T/C: 101 % of control
endpoint: mean survival time, dose: 8.0 mg/kg/injection, schedule: Q11HX001 (ip), vehicle: water
  T/C: 101 % of control
endpoint: mean survival time, dose: 10.0 mg/kg/injection, schedule: Q01DX001 (ip), vehicle: water
  T/C: 105 % of control
endpoint: mean survival time, dose: 10.0 mg/kg/injection, schedule: Q01DX009 (ip), vehicle: Klucel (hydroxypropylcellulose) (HPC)
  T/C: 105 % of control
endpoint: mean survival time, dose: 10.0 mg/kg/injection, schedule: Q01DX009 (ip), vehicle: saline with Tween-80
  T/C: 113 % of control
endpoint: mean survival time, dose: 10.0 mg/kg/injection, schedule: Q03DX003 (ip), vehicle: Klucel (hydroxypropylcellulose) (HPC)
  T/C: 183 % of control
endpoint: mean survival time, dose: 10.0 mg/kg/injection, schedule: Q04DX003 (ip), vehicle: Klucel (hydroxypropylcellulose) (HPC)
  T/C: 168 % of control
endpoint: mean survival time, dose: 10.0 mg/kg/injection, schedule: Q11HX001 (ip), vehicle: water
  T/C: 105 % of control
endpoint: mean survival time, dose: 12.5 mg/kg/injection, schedule: Q01DX001 (ip), vehicle: water
  T/C: 104 % of control
endpoint: mean survival time, dose: 12.5 mg/kg/injection, schedule: Q11HX001 (ip), vehicle: water
  T/C: 104 % of control
endpoint: mean survival time, dose: 20.0 mg/kg/injection, schedule: Q01DX007 (ip), vehicle: Klucel (hydroxypropylcellulose) (HPC)
  T/C: 94 % of control
endpoint: mean survival time, dose: 20.0 mg/kg/injection, schedule: Q01DX007 (ip), vehicle: saline with Tween-80
  T/C: 113 % of control
endpoint: mean survival time, dose: 20.0 mg/kg/injection, schedule: Q01DX009 (ip), vehicle: Klucel (hydroxypropylcellulose) (HPC)
  T/C: 86 % of control
endpoint: mean survival time, dose: 20.0 mg/kg/injection, schedule: Q01DX009 (ip), vehicle: saline with Tween-80
  T/C: 100 % of control
endpoint: mean survival time, dose: 20.0 mg/kg/injection, schedule: Q04DX003 (ip), vehicle: Klucel (hydroxypropylcellulose) (HPC)
  T/C: 186 % of control
endpoint: median survival time, dose: 4.0 mg/kg/injection, schedule: Q01DX009 (ip), vehicle: saline
  T/C: 183 % of control
endpoint: median survival time, dose: 8.0 mg/kg/injection, schedule: Q01DX009 (ip), vehicle: saline
  T/C: 155 % of control
endpoint: median survival time, dose: 16.0 mg/kg/injection, schedule: Q01DX009 (ip), vehicle: saline
  T/C: 88 % of control

## O=C(O)C1C2C=CC(C2)C1C(=O)Nc1ccccc1 (centres undefined)
[1]
  T/C: 97 % of control
[2]
  T/C: 97 % of control
[3]
  T/C: 96 % of control

## CN(CCC(=O)N(C)CCC1CCCCC1)CCC1CCCCC1
endpoint: mean survival time, dose: 75.0 mg/kg/injection, schedule: Q01DX001 (ip), vehicle: saline
  T/C: 98 % of control

## COc1ccc(C(OC(=O)Oc2ccccc2)c2ccccc2)cc1 (centres undefined)
endpoint: mean survival time, dose: 100.0 mg/kg/injection, schedule: Q04DX002 (ip), vehicle: other
  T/C: 93 % of control
endpoint: mean survival time, dose: 200.0 mg/kg/injection, schedule: Q04DX002 (ip), vehicle: other
  T/C: 96 % of control
endpoint: mean survival time, dose: 400.0 mg/kg/injection, schedule: Q04DX002 (ip), vehicle: other
  T/C: 96 % of control

## CC(=O)C(C)OS(C)(=O)=O (centres undefined)
endpoint: mean survival time, dose: 25.0 mg/kg/injection, schedule: Q04DX003 (ip), vehicle: saline with Tween-80
  T/C: 108 % of control
endpoint: mean survival time, dose: 50.0 mg/kg/injection, schedule: Q04DX003 (ip), vehicle: saline with Tween-80
  T/C: 108 % of control
endpoint: mean survival time, dose: 100.0 mg/kg/injection, schedule: Q04DX003 (ip), vehicle: saline with Tween-80
  T/C: 109 % of control
endpoint: mean survival time, dose: 200.0 mg/kg/injection, schedule: Q04DX003 (ip), vehicle: saline with Tween-80
  T/C: 120 % of control

## O=C(OCC(O)C(O)C(O)C(O)COC(=O)c1ccccc1)c1ccccc1 (centres undefined) (tested in a mixture with another compound)
endpoint: mean survival time, dose: 50.0 mg/kg/injection, schedule: Q01DX009 (ip), vehicle: saline with Tween-80
  T/C: 98 % of control
[1]
  T/C: 110 % of control
[2]
  T/C: 98 % of control

## CC(C)c1ccc(C(=O)CCCCl)cc1
[1]
  T/C: 98 % of control
[2]
  T/C: 97 % of control
[3]
  T/C: 97 % of control

## Cc1cc(=O)oc2cc(O)ccc12
endpoint: mean survival time, dose: 100.0 mg/kg/injection, schedule: Q01DX001 (ip), vehicle: saline with Tween-80
  T/C: 94 % of control
endpoint: mean survival time, dose: 200.0 mg/kg/injection, schedule: Q01DX001 (ip), vehicle: saline with Tween-80
  T/C: 98 % of control
endpoint: mean survival time, dose: 400.0 mg/kg/injection, schedule: Q01DX001 (ip), vehicle: saline with Tween-80
  T/C: 87 % of control
